Literature values as cited in publication PMC9516332 (Frontiers in Oncology, 2022).
Where two headings read alike, the source gives them in different places.

What was measured:
Conditions in all cases: cited from earlier work
[1] = target: T1, panel of 255 wild-type kinases (Homo sapiens, UniProt Q8IWQ3)
T1 sequence (Q8IWQ3 1-736): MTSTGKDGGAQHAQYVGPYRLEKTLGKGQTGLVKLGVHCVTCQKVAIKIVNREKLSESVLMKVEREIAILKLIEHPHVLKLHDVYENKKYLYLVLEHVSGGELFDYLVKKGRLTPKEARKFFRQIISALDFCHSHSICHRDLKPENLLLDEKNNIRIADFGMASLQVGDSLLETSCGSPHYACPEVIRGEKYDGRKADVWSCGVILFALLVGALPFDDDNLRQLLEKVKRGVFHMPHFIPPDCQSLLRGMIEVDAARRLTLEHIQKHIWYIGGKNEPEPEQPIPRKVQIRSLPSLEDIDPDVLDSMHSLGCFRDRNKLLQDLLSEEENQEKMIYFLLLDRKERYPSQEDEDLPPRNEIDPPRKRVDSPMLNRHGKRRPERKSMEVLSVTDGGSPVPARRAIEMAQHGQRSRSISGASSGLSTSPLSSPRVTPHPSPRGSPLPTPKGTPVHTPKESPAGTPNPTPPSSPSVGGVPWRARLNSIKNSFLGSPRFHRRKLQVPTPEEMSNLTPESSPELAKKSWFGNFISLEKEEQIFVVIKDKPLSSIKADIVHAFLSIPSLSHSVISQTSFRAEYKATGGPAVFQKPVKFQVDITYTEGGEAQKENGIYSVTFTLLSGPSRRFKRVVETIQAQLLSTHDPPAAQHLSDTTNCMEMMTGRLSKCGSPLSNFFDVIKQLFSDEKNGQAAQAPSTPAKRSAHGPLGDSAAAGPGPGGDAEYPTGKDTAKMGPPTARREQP

[2] = target: panel of 255 wild-type kinases (Homo sapiens, UniProt P11362)
[3] = target: T2, panel of 255 wild-type kinases (Homo sapiens, UniProt P29320)
T2 sequence (P29320 21-983): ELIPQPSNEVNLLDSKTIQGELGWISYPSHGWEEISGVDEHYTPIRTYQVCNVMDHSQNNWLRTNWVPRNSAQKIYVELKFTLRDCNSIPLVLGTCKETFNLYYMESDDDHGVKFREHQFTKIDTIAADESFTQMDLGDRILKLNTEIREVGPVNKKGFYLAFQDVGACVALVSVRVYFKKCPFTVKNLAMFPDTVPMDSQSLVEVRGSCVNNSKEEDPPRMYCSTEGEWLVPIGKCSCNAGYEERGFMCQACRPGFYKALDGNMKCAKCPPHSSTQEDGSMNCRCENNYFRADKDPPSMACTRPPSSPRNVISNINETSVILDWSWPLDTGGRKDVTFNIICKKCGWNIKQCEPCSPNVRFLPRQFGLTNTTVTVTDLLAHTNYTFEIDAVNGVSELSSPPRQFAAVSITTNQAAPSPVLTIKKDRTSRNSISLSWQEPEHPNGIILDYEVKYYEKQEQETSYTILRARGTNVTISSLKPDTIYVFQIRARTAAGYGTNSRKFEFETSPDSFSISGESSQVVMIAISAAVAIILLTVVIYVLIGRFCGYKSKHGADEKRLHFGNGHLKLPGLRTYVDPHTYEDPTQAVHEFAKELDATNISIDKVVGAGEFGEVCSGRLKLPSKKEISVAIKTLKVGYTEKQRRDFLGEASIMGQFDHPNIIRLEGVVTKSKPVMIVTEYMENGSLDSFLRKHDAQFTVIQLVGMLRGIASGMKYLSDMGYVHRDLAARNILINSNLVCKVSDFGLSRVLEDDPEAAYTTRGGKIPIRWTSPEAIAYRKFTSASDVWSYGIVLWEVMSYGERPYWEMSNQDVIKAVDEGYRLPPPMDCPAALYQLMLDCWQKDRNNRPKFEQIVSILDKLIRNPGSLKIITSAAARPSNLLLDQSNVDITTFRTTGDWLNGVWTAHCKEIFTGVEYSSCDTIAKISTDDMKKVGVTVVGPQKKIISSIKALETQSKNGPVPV

[4] = BRSK2 kinase assay, 1 µmol/L single concentration, ref DOI: 10.1158/1535-7163.MCT-18-0877
[5] = kinase FGFR1, 1 µmol/L single concentration, ref DOI: 10.1158/1535-7163.MCT-18-0877
[6] = kinase EPHA3, 1 µmol/L single concentration, ref DOI: 10.1158/1535-7163.MCT-18-0877
[7] = BRSK2 kinase assay, 1 µmol/L single concentration, ref DOI: 10.1371/journal.pone.0092146
[8] = kinase FGFR1, 1 µmol/L single concentration, ref DOI: 10.1371/journal.pone.0092146
[9] = kinase EPHA3, 1 µmol/L single concentration, ref DOI: 10.1371/journal.pone.0092146

| SMILES | %-inhibition BRSK2 [1, 4] [%] | %-inhibition at 1 µmol/L, FGFR1 [2, 5] [%] | %-inhibition at 1 µmol/L, EPHA3 [3, 6] [%] | %-inhibition BRSK2 [1, 7] [%] | %-inhibition at 1 µmol/L, FGFR1 [2, 8] [%] | %-inhibition at 1 µmol/L, EPHA3 [3, 9] [%] | other results |
| --- | --- | --- | --- | --- | --- | --- | --- |
| CC#CC(=O)N1CCC[C@H]1c1nc(-c2ccc(C(=O)Nc3ccccn3)cc2)c2c(N)nccn12 [acalabrutinib] | -10 | -2.28 | -2 |  |  |  |  |
| CCc1cc2c(cc1N1CCC(N3CCOCC3)CC1)C(C)(C)c1[nH]c3cc(C#N)ccc3c1C2=O [alectinib] | -2.35 | 5.37 | 3.25 |  |  |  |  |
| COc1cc(N2CCC(N3CCN(C)CC3)CC2)ccc1Nc1ncc(Cl)c(Nc2ccccc2P(C)(C)=O)n1 [brigatinib] |  |  |  |  |  |  | %-inhibition BRSK2 [1]: 77%; %-inhibition at 1 µmol/L, FGFR1 [2]: 95%; %-inhibition at 1 µmol/L, EPHA3 [3]: 0.198% |
| Cc1cc(Nc2ncc(Cl)c(Nc3ccccc3S(=O)(=O)C(C)C)n2)c(OC(C)C)cc1C1CCNCC1 [ceritinib] | 24 | 11 | 1.74 |  |  |  |  |
| O=C(c1ccc(F)c(F)c1Nc1ccc(I)cc1F)N1CC(O)([C@@H]2CCCCN2)C1 [cobimetinib] | 3 | -1.33 | 2 |  |  |  |  |
| C[C@@H](Oc1cc(-c2cnn(C3CCNCC3)c2)cnc1N)c1c(Cl)ccc(F)c1Cl [crizotinib] |  |  |  | 8 | 17 | 19 |  |
| CC(C)(C)c1nc(-c2cccc(NS(=O)(=O)c3c(F)cccc3F)c2F)c(-c2ccnc(N)n2)s1 [dabrafenib] |  |  |  | 30 | 10 | 18 |  |
| C=CC(=O)N1CCC[C@@H](n2nc(-c3ccc(Oc4ccccc4)cc3)c3c(N)ncnc32)C1 [ibrutinib] | 16 | 71 | 3.8 |  |  |  |  |
| CO[C@@H]1[C@H](N(C)C(=O)c2ccccc2)C[C@H]2O[C@]1(C)n1c3ccccc3c3c4c(c5c6ccccc6n2c5c31)C(=O)NC4 [midostaurin] | 90 | 93 | 8 |  |  |  |  |
| C=CC(=O)Nc1cc(Nc2nccc(-c3cn(C)c4ccccc34)n2)c(OC)cc1N(C)CCN(C)C [osimertinib] | -0.439 | 3.51 | 0.753 |  |  |  |  |
| CC(=O)Nc1cccc(-n2c(=O)n(C3CC3)c(=O)c3c(Nc4ccc(I)cc4F)n(C)c(=O)c(C)c32)c1 [trametinib] |  |  |  | 5.38 | -1.45 | -6 |  |
| CCCS(=O)(=O)Nc1ccc(F)c(C(=O)c2c[nH]c3ncc(-c4ccc(Cl)cc4)cc23)c1F [vemurafenib] |  |  |  | -6 | 21 | -7.52 |  |
